In US20140294905A1, “ANTIMICROBIAL TEXTILES” (BACTOGEN BIYOTEKNOLOJIK URUNLER SANAYI VE TICARET ANONIM …, priority 2011, published 2014):

How the values were obtained:
Aspergillus niger [1] = experiment: Antimicrobial tests of textiles on planted petri dishes; format: cell-based; design: key: + indicates that (antimicrobial) inhibition zones are observed around the textiles added with sodium borate (FIG. 1-8); details: in vitro, room temperature for 72 hours
Description: (§1) Sodium borate-added textiles prepared with three different techniques and the unprocessed textiles to which sodium borate is not added are placed on the petri dishes planted with microorganisms and their antimicrobial efficiency is tested.
(§2) Sodium borate-added textiles fixed with methanol, textiles sprayed with sodium borate dissolved in pH-enhanced water and textiles dyed with water-based textile dye the base of which is prepared by the addition of sodium borate are tested. As a negative control, any possible impact which inhibits the growing of microorganisms on textiles which are not processed is observed. […] Tested antimicrobial activity is evaluated upon the measuring of the inhibition zone of the microorganisms handled. All tests are repeated at least twice.

Botrytis cinerea [2] = experiment: as above; format: cell-based; design: key: + indicates that (antimicrobial) inhibition zones are observed around the textiles added with sodium borate (FIG. 1-8); details: in vitro, room temperature for 72 hours
Description: as §1, §2

Candida albicans [3] = experiment: as above; format: cell-based; design: key: + indicates that (antimicrobial) inhibition zones are observed around the textiles added with sodium borate (FIG. 1-8); details: in vitro, 37° C. for 48 hours
Description: as §1, §2

Candida glabrata [4] = experiment: as above; format: cell-based; design: key: + indicates that (antimicrobial) inhibition zones are observed around the textiles added with sodium borate (FIG. 1-8); details: in vitro, 37° C. for 48 hours
Description: as §1, §2

Fusarium oxysporum [5] = experiment: as above; format: cell-based; design: key: + indicates that (antimicrobial) inhibition zones are observed around the textiles added with sodium borate (FIG. 1-8); details: in vitro, room temperature for 72 hours
Description: as §1, §2

Penicillium expansum [6] = experiment: as above; format: cell-based; design: key: + indicates that (antimicrobial) inhibition zones are observed around the textiles added with sodium borate (FIG. 1-8); details: in vitro, room temperature for 72 hours
Description: as §1, §2

Penicillium vinaceum [7] = experiment: as above; format: cell-based; design: key: + indicates that (antimicrobial) inhibition zones are observed around the textiles added with sodium borate (FIG. 1-8); details: in vitro, room temperature for 72 hours
Description: as §1, §2

Candida albicans [8] = experiment: Modified disc diffusion method; details: 36±1° C. for 48 hours
Description: (§3) A 100 μl solution containing 10^8 cfu/ml bacteria, 10^6 cfu/ml yeast and 10^4 spores/ml mould is prepared from new cultures and is inoculated respectively onto triptonic soy agar (TSA), Sabouraud Dextrose Agar (SDA) and Potato Dextrose Agar (PDA) through the use of diffusion method. 20 μl of sterile water is dropped onto empty discs and the discs are then dipped into sodium borate in powder format. Discs dipped into sodium borate are then placed on planted petri dishes. As a negative control, blank discs onto which 20 μl of sterile water is dropped are used. As a positive control, Ofloxacin (10 μg/disc) and nystatin (30 μg/disc) are respectively used for bacteria and fungi.
(§4) Planted petri dishes on which modified disc diffusion method is applied are kept at 36±1° C. for 24 hours for bacteria, at 36±1° C. for 48 hours for yeasts and at 25±1° C. for 72 hours for moulds. Antimicrobial activity inhibition zone (a zone where no microorganisms grow) is measured and evaluated for microorganisms tested with modified disc diffusion method. All tests are repeated at least twice.

Candida glabrata [9] = experiment: Modified disc diffusion method; details: 36±1° C. for 48 hours
Description: as §3, §4

Aspergillus niger [10] = experiment: Modified disc diffusion method; details: 25±1° C. for 72 hours
Description: as §3, §4

Fusarium oxysporum [11] = experiment: Modified disc diffusion method; details: 25±1° C. for 72 hours
Description: as §3, §4

Botrytis cinerea [12] = experiment: Modified disc diffusion method; details: 25±1° C. for 72 hours
Description: as §3, §4

Penicillium vinaceum [13] = experiment: Modified disc diffusion method; details: 25±1° C. for 72 hours
Description: as §3, §4

Penicillium expansum [14] = experiment: Modified disc diffusion method; details: 25±1° C. for 72 hours
Description: as §3, §4

Escherichia coli [15] = experiment: Antimicrobial tests of textiles on planted petri dishes; format: cell-based; design: key: + indicates that (antimicrobial) inhibition zones are observed around the textiles added with sodium borate (FIG. 1-8); details: in vitro, 37° C. for 24 hours
Description: as §1, §2

MRSA = experiment: as above; format: cell-based; design: key: + indicates that (antimicrobial) inhibition zones are observed around the textiles added with sodium borate (FIG. 1-8); details: in vitro, 37° C. for 24 hours
Description: as §1, §2

Pseudomonas aeruginosa [16] = experiment: as above; format: cell-based; design: key: + indicates that (antimicrobial) inhibition zones are observed around the textiles added with sodium borate (FIG. 1-8); details: in vitro, 37° C. for 24 hours
Description: as §1, §2

Staphylococcus aureus [17] = experiment: as above; format: cell-based; design: key: + indicates that (antimicrobial) inhibition zones are observed around the textiles added with sodium borate (FIG. 1-8); details: in vitro, 37° C. for 24 hours
Description: as §1, §2

Escherichia coli [18] = experiment: Modified disc diffusion method; details: 36±1° C. for 24 hours
Description: as §3, §4

Staphylococcus aureus [19] = experiment: Modified disc diffusion method; details: 36±1° C. for 24 hours
Description: as §3, §4

Pseudomonas aeruginosa [20] = experiment: Modified disc diffusion method; details: 36±1° C. for 24 hours
Description: as §3, §4

C[C@@H]1[C@H](O)[C@@H](C)/C=C/C=C/CC/C=C/C=C/C=C/C=C/C(O[C@H]2O[C@H](C)[C@@H](O)[C@H](N)[C@@H]2O)CC2O[C@](O)(CC(O)C(O)CCC(O)CC(O)CC(O)CC(=O)O[C@H]1C)CC(O)C2C(=O)O (stereo partly shown) [Nystatin]
+: Antimicrobial test result (inhibition zone around textile) (Aspergillus niger [1]) | Antimicrobial test result (inhibition zone around textile) (Botrytis cinerea [2]) | Antimicrobial test result (inhibition zone around textile) (Candida albicans [3]) | Antimicrobial test result (inhibition zone around textile) (Candida glabrata [4]) | Antimicrobial test result (inhibition zone around textile) (Fusarium oxysporum [5]) | Antimicrobial test result (inhibition zone around textile) (Penicillium expansum [6]) | Antimicrobial test result (inhibition zone around textile) (Penicillium vinaceum [7]) | Antimicrobial effect (inhibition zone) (Candida albicans [8]) | Antimicrobial effect (inhibition zone) (Candida glabrata [9]) | Antimicrobial effect (inhibition zone) (Aspergillus niger [10]) | Antimicrobial effect (inhibition zone) (Fusarium oxysporum [11]) | Antimicrobial effect (inhibition zone) (Botrytis cinerea [12]) | Antimicrobial effect (inhibition zone) (Penicillium vinaceum [13]) | Antimicrobial effect (inhibition zone) (Penicillium expansum [14])

CC1COc2c(N3CCN(C)CC3)c(F)cc3c(=O)c(C(=O)O)cn1c23 (stereo not shown) [Ofloxacin]
+: Antimicrobial test result (inhibition zone around textile) (Escherichia coli [15]) | Antimicrobial test result (inhibition zone around textile) (MRSA) | Antimicrobial test result (inhibition zone around textile) (Pseudomonas aeruginosa [16]) | Antimicrobial test result (inhibition zone around textile) (Staphylococcus aureus [17]) | Antimicrobial effect (inhibition zone) (Escherichia coli [18]) | Antimicrobial effect (inhibition zone) (Staphylococcus aureus [19]) | Antimicrobial effect (inhibition zone) (Pseudomonas aeruginosa [20])

O.O.O.O.O.O.O.O.O.O.[Na+].[Na+].[O-]B1OB2OB([O-])OB(O1)O2 [Sodium Borate, sodium borate]
+: Antimicrobial effect (inhibition zone) (Escherichia coli [18]) | Antimicrobial effect (inhibition zone) (Staphylococcus aureus [19]) | Antimicrobial effect (inhibition zone) (Pseudomonas aeruginosa [20]) | Antimicrobial effect (inhibition zone) (Candida albicans [8]) | Antimicrobial effect (inhibition zone) (Candida glabrata [9]) | Antimicrobial effect (inhibition zone) (Aspergillus niger [10]) | Antimicrobial effect (inhibition zone) (Fusarium oxysporum [11]) | Antimicrobial effect (inhibition zone) (Botrytis cinerea [12]) | Antimicrobial effect (inhibition zone) (Penicillium vinaceum [13]) | Antimicrobial effect (inhibition zone) (Penicillium expansum [14])
